Where two headings read alike, the source gives them in different places.
Tests used:
[1] = test system: IL2 activation in human PBMC; test: IL2 activity assay (ELISA) in human PBMC; type: cell-based; conditions: CD3/CD28 antibody, 24 h
Description: The compound was diluted with DMSO in a dilution plate, with a maximum starting concentration of 10 μM, 8 concentration gradient points (3-fold dilution), and then added to the 96-well plate along with the addition of 5 µg/ml CD28 antibody. Incubation was performed for 24 h. • (3) The ELISA plate was washed twice with PBS, and an ELISA dilution was added at 100 µl/well. Then 100 μl of the standard and the incubated samples obtained in step 2 were added separately, and incubated for 2 h at room temperature. • (4) Each well was washed 3 times by adding with 400 μl washing buffer per well, and was finally blotted to dryness with a clean absorbent paper. • (5) 200 μl of the IL2 conjugate was added per well, covered with a fresh tape, and incubated for 2 h at room temperature. Step (4) was repeated. • (6) 200 μl of the substrate was added per well under the protection from light. The plate was incubated at room temperature for 20 min. • (7) 50 μL of a stop solution was added per well. The color of the wells should be from blue to yellow. Signals at […] were read by a microplate reader, and the signal intensity was used to characterize the activity level of IL2. EC50 values were obtained by fitting using the Prism software.

[2] = Pharmacokinetics of single administration in mice; type: in vivo, Balb/c mice; parameters: Vz: unit not given here; conditions: for clearance / half-life / AUC / bioavailability / Cmax: female, Balb/c, mouse, plasma; for AUC: read-out: AUC; for bioavailability: po 10 mg/kg vs iv 2 mg/kg; for Cmax: read-out: Cmax
Description: Female Balb/c mice (weighing 18-22 g) were fasted overnight prior to the experiment. The test compound was dissolved in the vehicle, DMSO:PEG400:30% captisol:HCl=5:20:70:5 (v/v/v/v), and administered by single oral gavage at a dose of 10 mg/kg or by intravenous injection at a dose of 2 mg/kg. Blood samples were collected from the orbital venous plexus at 15 minutes, 30 minutes, and 1, 2, 4, 6, 8, and 24 h after administration. Approximately 0.08 mL of blood was collected at each time point and placed in a 1.5 mL centrifuge tube containing EDTA-2K anticoagulant. Blood samples were centrifuged (3200 g, 10 min, 4° C.) within 2 h to obtain plasma samples. Plasma samples were frozen at −70° C. to −80° C. in an ultra-low temperature freezer prior to processing. Before sample processing, the plasma samples were taken out of the freezer. After thawing at room temperature, 20 μL of each plasma sample was added into a 96-well plate, and then 120 μL of acetonitrile containing an internal standard was added to precipitate proteins. […] The supernatant was taken and mixed with an equal volume of 0.1% aqueous formic acid solution for LC-MS/MS analysis.

human HPK1 [3] = target: T1, human HPK1 (Homo sapiens, UniProt Q92918); test: HPK1 protein degradation assay (WB) in RAMOS cell line; type: cell-based; parameters: The RAMOS cell line was selected as the degradation cell line; endogenous in cells; host or cells: RAMOS; conditions: RAMOS cells, 16 h, Western blot
T1 sequence (Q92918 whole entry): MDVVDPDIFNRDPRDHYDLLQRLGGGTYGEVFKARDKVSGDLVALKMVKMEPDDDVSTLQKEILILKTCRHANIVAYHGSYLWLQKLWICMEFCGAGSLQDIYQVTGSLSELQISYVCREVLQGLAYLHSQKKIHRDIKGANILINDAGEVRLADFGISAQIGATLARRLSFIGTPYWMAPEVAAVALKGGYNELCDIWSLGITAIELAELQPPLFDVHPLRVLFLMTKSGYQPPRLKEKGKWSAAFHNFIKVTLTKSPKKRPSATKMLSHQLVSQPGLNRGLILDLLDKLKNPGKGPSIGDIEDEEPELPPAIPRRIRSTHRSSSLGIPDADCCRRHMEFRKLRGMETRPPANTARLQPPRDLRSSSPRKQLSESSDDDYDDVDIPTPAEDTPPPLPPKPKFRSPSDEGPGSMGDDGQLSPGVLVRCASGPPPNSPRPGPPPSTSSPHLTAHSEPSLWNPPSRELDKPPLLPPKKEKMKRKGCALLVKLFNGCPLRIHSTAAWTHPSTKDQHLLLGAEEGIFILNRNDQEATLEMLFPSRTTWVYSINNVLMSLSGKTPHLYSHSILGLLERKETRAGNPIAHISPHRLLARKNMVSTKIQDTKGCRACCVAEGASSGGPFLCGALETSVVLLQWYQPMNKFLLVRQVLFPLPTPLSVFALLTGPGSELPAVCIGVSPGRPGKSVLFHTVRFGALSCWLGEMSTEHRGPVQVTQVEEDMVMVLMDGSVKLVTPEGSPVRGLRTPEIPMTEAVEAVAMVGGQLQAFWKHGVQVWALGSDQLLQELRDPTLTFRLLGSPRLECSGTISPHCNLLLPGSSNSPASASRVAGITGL
Description: Degradation of HPK1 proteins and DC50/Dmax were determined by the WB method in order to evaluate the in vitro degradative ability of the compound.
The RAMOS cell line was selected as the degradation cell line. Incubation Conditions: RMPI 1640 culture medium supplemented with 10% FBS, 37° C., 5% CO2.
• (1) Plating cells: in a 6 cm dish with 4 ml of the culture medium, cells plated at 2×10^6 cells/dish. • (2) Drug addition: the compound (stock solution concentration: 10 mM) was diluted with DMSO in a dilution plate, with a maximum starting concentration of 10 μM and 7 concentration gradient points (3-fold dilution). 4 μl of each diluted solution was taken, added to a dish, and incubated for 16 h. • (3) Cells were harvested, added with a lysis buffer, and centrifuged at 12000 rpm/min for 20 min. The supernatant was collected. After quantification using a BCA quantification kit, 5× loading buffer was added to denature for 10 min. • (4) 10 μg of denatured protein was added to the SDS-PAGE gel. After electrophoresis and membrane transfer, the plate was blocked with 5% BSA for 1 h, incubate with the primary antibody at 4° C. overnight. After washing off the primary antibody, the secondary antibody was added, incubated at room temperature for 1 h, and washed off.
Imaging: the membranes were scanned with a two-color fluorescence imaging system.

human HPK1 [4] = target: T1, human HPK1; test: Assay of in vitro HPK1 enzymatic activity (ADP-Glo); type: biochemical; conditions: 7 nM kinase, 20 uM ATP
Description: Compounds were evaluated for their ability to inhibit human HPK1 by IC50 determination using the ADP-Glo method to measure the kinase activity.
Buffer conditions of the enzyme: 50 mM Hepes (pH 7.5), 10 mM MgCl2, 1 mM EGTA, 0.01% Brij35, 2 mM DTT.
Preparation of the Kinase and substrate mixture: the working concentration of the kinase in the HPK1 reaction solution was 7 nM and the working concentration of ATP was 20 uM.
The compound was diluted with DMSO in a dilution plate, with a maximum starting concentration of 1 uM and 10 concentration gradient points (4-fold dilution).
Each of the above 10 concentration gradient points of the compound was then diluted 50-fold into the kinase reaction buffer and shaken on a shaker for 20 min. The kinase was prepared in an enzyme reaction buffer and 2 μl of the HPK1 kinase was added per well of the reaction plate at a HPK1 kinase concentration of 7 nM.
1 μl of diluted compound in the buffer was added per well, and the plate was sealed with a plate sealing film, centrifuged at 1000 g for 30 seconds, and left at room temperature for 10 minutes. An ATP solution was prepared with an enzyme reaction buffer and 2 μl of the ATP solution was added to the reaction plate (the working concentration of ATP was 20 uM). The plate was sealed with a plate sealing film, centrifuged at 1000 g for 30 seconds, and reacted at room temperature for 60 minutes. 4 μL of ADP-Glu was transferred to a 384 reaction plate, centrifuged at 1000 rpm/min for 1 min, and incubated at 25° C. for 40 min. 8 μL of the Detection solution was transferred to a 384 reaction plate, centrifuged at 1000 rpm/min for 1 min, and incubated at 25° C. for 40 min. The RLU (Relative luminescence unit) signal was read using a BMG microplate reader, and the signal intensity was used to characterize the activity level of the kinase.
The kinase activity data was expressed by comparing the kinase activity of the test compound and the blank group (containing only DMSO), and the IC50 value was obtained by curve fitting using the Prism software (GraphPad7.0).

C/C(=C(Cl)\C=C/CC(=O)N1CCC(CC2CCN(c3ccc(-c4cnc5[nH]cc(-c6cnn(C)c6)c5n4)cn3)CC2)CC1)N1CCC(=O)NC1=O [Compound C110]
EC50 [1]: 55.6 nM
clearance ([2]; iv 2 mg/kg): 8.27 mL/min/kg
half-life ([2]; iv 2 mg/kg): 58.8 min
AUC ([2]; iv 2 mg/kg): 4030 ng·h/mL
half-life ([2]; po 10 mg/kg): 201 min
bioavailability [2]: 17.7%
AUC ([2]; po 10 mg/kg): 2210 ng·h/mL
Cmax ([2]; po 10 mg/kg): 840 ng/mL
Vz ([2]; iv 2 mg/kg): 701.3
DC50 (human HPK1 [3]): 9.35 nM
Dmax (human HPK1 [3]): 93%

CCN1CCC(n2cc(-c3c[nH]c4ncc(-c5ccc(N6CCC(CC7CCN(C(=O)c8ccc(Cl)c(N9CCC(=O)NC9=O)c8)CC7)CC6)nc5)nc34)cn2)CC1 [Compound C024]
EC50 [1]: 196 nM
DC50 (human HPK1 [3]): 2.1 nM
Dmax (human HPK1 [3]): 77%
IC50 (human HPK1 [4]): 2.3 nM

CCN1CCC(n2cc(-c3c[nH]c4ncc(-c5ccc(N6CCN(C7CCC(NC(=O)c8ccc(Cl)c(N9CCC(=O)NC9=O)c8)CC7)CC6)c(C)c5)nc34)cn2)CC1 (centres unmarked) [Compound C021]
EC50 [1]: 37.9 nM
IC50 (human HPK1 [4]): 0.5 nM

CCn1cc(-c2c[nH]c3ncc(-c4ccc(N5CCC(CC6CCN(C(=O)c7ccc(Cl)c(N8CCC(=O)NC8=O)c7)CC6)CC5)nc4)nc23)cn1 [Compound C162]
EC50 [1]: 27.3 nM
clearance ([2]; iv 2 mg/kg): 12.6 mL/min/kg
half-life ([2]; iv 2 mg/kg): 42 min
AUC ([2]; iv 2 mg/kg): 2640 ng·h/mL
half-life ([2]; po 10 mg/kg): 99.6 min
bioavailability [2]: 28%
AUC ([2]; po 10 mg/kg): 3690 ng·h/mL
Cmax ([2]; po 10 mg/kg): 1370 ng/mL
Vz ([2]; iv 2 mg/kg): 763
DC50 (human HPK1 [3]): 29.2 nM
Dmax (human HPK1 [3]): 86.5%

CCN1CCC(n2cc(-c3c[nH]c4ncc(-c5cnc(OCCNC(=O)c6ccc(Cl)c(N7CCC(=O)NC7=O)c6)c(C)c5)nc34)cn2)CC1 [Compound C022]
EC50 [1]: 95.6 nM
DC50 (human HPK1 [3]): 55 nM
Dmax (human HPK1 [3]): 86%
IC50 (human HPK1 [4]): 1.4 nM

O=C1CCN(c2cc(C(=O)N3CCC(CC4CCN(c5ccc(-c6cnc7[nH]cc(-c8cnn(C9CC9)c8)c7n6)cn5)CC4)CC3)ccc2Cl)C(=O)N1 [Compound C170]
EC50 [1]: 23.8 nM
clearance ([2]; iv 2 mg/kg): 6.9 mL/min/kg
half-life ([2]; iv 2 mg/kg): 42 min
AUC ([2]; iv 2 mg/kg): 4830 ng·h/mL
half-life ([2]; po 10 mg/kg): 253 min
bioavailability [2]: 27.6%
AUC ([2]; po 10 mg/kg): 6670 ng·h/mL
Cmax ([2]; po 10 mg/kg): 1390 ng/mL
Vz ([2]; iv 2 mg/kg): 1329
DC50 (human HPK1 [3]): 52.2 nM
Dmax (human HPK1 [3]): 87.1%

[2H]C([2H])([2H])n1cc(-c2c[nH]c3ncc(-c4ccc(N5CCC(CC6CCN(C(=O)c7ccc(Cl)c(N8CCC(=O)NC8=O)c7)CC6)CC5)nc4)nc23)cn1 [Compound C160]
EC50 [1]: 45.5 nM
clearance ([2]; iv 2 mg/kg): 10.7 mL/min/kg
half-life ([2]; iv 2 mg/kg): 75 min
AUC ([2]; iv 2 mg/kg): 5330 ng·h/mL
half-life ([2]; po 10 mg/kg): 191 min
bioavailability [2]: 29.6%
AUC ([2]; po 10 mg/kg): 7960 ng·h/mL
Cmax ([2]; po 10 mg/kg): 2460 ng/mL
Vz ([2]; iv 2 mg/kg): 602
DC50 (human HPK1 [3]): 12.7 nM
Dmax (human HPK1 [3]): 88.8%

CCN1CCC(n2cc(-c3c[nH]c4ncc(-c5ccc(N6CCC(CC7CCN(C(=O)c8ccc(Cl)c(N9CCC(=O)NC9=O)c8)CC7)CC6)c(F)c5)nc34)cn2)CC1 [Compound C135]
EC50 [1]: 44.1 nM
DC50 (human HPK1 [3]): 176 nM
Dmax (human HPK1 [3]): 63%

CCN1CCC(n2cc(-c3c[nH]c4ncc(-c5cnc(N6CCN(C7CCC(NC(=O)c8ccc(Cl)c(N9CCC(=O)NC9=O)c8)CC7)CC6)c(C)c5)nc34)cn2)CC1 (centres unmarked) [Compound C018]
EC50 [1]: 102 nM
IC50 (human HPK1 [4]): 1.8 nM

CCN1CCC(n2cc(-c3c[nH]c4ncc(-c5ccc(N6CCC(OC7CCN(C(=O)c8ccc(Cl)c(N9CCC(=O)NC9=O)c8)CC7)CC6)c(F)c5)nc34)cn2)CC1 [Compound C134]
EC50 [1]: 41.7 nM
DC50 (human HPK1 [3]): 7.22 nM
Dmax (human HPK1 [3]): 78%

CCN1CCC(n2cc(-c3c[nH]c4ncc(-c5cnc(N6CCN(C7CCC(NC(=O)c8cccc(N9CCC(=O)NC9=O)c8)CC7)CC6)c(C)c5)nc34)cn2)CC1 (centres unmarked) [Compound C017]
EC50 [1]: 324 nM
IC50 (human HPK1 [4]): 0.9 nM

CCN1CCC(n2cc(-c3c[nH]c4ncc(-c5ccc(N6CCC(OC7CCN(C(=O)c8ccc(Cl)c(N9CCC(=O)NC9=O)c8)CC7)CC6)c(C)c5)nc34)cn2)CC1 [Compound C132]
EC50 [1]: 34.6 nM
DC50 (human HPK1 [3]): 29.3 nM
Dmax (human HPK1 [3]): 73%

CCN1CCC(n2cc(-c3c[nH]c4ncc(-c5cnc(OCC(=O)Nc6ccc(NC7CCC(=O)NC7=O)cc6)c(C)c5)nc34)cn2)CC1 (centres unmarked) [Compound C006]
EC50 [1]: 179 nM
IC50 (human HPK1 [4]): 3.2 nM

CCN1CCC(n2cc(-c3c[nH]c4ncc(-c5cnc(N6CCN(CC7CCN(C(=O)c8ccc(Cl)c(N9CCC(=O)NC9=O)c8)CC7)CC6)c(C)c5)nc34)cn2)CC1 [Compound C003]
EC50 [1]: 111 nM
IC50 (human HPK1 [4]): 3.6 nM
